Non-standard residues stand in square brackets, D forms with d. Residues, ends and D or L forms follow the SMILES beside them. Gly(octyl) = CCCCCCCC[C@H](N)C(=O)O; hTyr = N[C@@H](CCc1ccc(O)cc1)C(=O)O; hArg = N=C(N)NCCCC[C@H](N)C(=O)O; Aad = N[C@@H](CCCC(=O)O)C(=O)O; Nle = CCCC[C@H](N)C(=O)O
Experiments:
Format in all cases: biochemical
[1] = target: T1, human neutrophil elastase (Homo sapiens, UniProt P08246); experiment: Inhibition of human neutrophil elastase (MeOSuc-AAPV-pNA hydrolysis); settings: 10 nM enzyme, 0.3 mM substrate, 37° C., pH 8; read-out: Human neutrophil elastase (hNE) IC50
T1 construct: purchased Serva Electrophoresis, Germany
T1 sequence (P08246 30-267): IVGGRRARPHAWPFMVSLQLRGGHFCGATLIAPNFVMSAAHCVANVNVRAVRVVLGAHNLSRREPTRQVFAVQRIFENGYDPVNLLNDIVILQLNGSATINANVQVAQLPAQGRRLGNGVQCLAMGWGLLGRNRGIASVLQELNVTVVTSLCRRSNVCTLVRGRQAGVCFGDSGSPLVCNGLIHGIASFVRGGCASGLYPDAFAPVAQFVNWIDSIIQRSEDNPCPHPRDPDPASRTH
Protocol: 2.2. Inhibition of Human Neutrophil Elastase
The ability of the peptides of the invention to inhibit the hydrolysis activity of human neutrophil elastase (Serva Electrophoresis, Germany) using the synthetic tetrapeptidic substrate MeOSuc-AAPV-pNA (Bachem, Switzerland) was determined as follows:
(§1) The above substrate (0.3 mM) and human neutrophil elastase (10 nM) were incubated at 37° C. with serial dilutions of the peptides (1% DMSO final) in assay buffer (50 mM Tris, pH 8, 300 mM NaCl, 0.01% Tween20). The release of pNA was followed by monitoring the change in absorbance at 405 nm for 30 minutes. Control assays with the same assay set-up as above, but without peptide, ran linearly. The dose-response data were fitted to the 4-parameter Hill equation providing the IC50 value using Graphpad (Prism 5).

[2] = target: T2, human proteinase 3 (Homo sapiens, UniProt P24158); experiment: Inhibition of human proteinase 3 (Boc-Ala-Ala-Nva-SBzl); settings: for IC50: 10 nM enzyme, 1 mM substrate, 37° C., pH7.4, read-out: Human proteinase 3 (hPr3) IC50; for hNE/hPr3 selectivity: ratio of hPr3 IC50 to hNE IC50
T2 construct: purchased Elastin Products Company, USA
T2 sequence (P24158 28-248): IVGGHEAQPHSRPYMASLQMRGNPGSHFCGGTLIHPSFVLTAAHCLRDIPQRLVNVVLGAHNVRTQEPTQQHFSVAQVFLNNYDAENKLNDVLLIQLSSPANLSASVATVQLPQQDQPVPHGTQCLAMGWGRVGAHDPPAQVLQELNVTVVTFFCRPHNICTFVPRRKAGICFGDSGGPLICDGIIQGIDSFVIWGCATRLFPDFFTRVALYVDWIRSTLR
Protocol: 2.4. Inhibition of Human Proteinase 3
The inactivation of human proteinase 3 (Elastin Products Company, USA) by the peptides of the invention using synthetic tripeptidic substrate Boc-Ala-Ala-Nva-SBzl (Elastin Products Company, USA) was determined as follows:
as §1, with “(1 mM), 4,4′-dithiodipyridine (250 μM)” for “(0.3 mM)”, “proteinase 3” for “neutrophil elastase”, “(0.5%” for “(1%”, “pH7.4, 150” for “pH 8, 300”, “reaction process” for “release of pNA”, “340” for “405”

[3] = target: T3, porcine pancreatic elastase (Sus scrofa, UniProt P00772); experiment: Inhibition of porcine pancreatic elastase (MeOSuc-AAA-pNA hydrolysis); settings: for IC50: 15 nM enzyme, 1 mM substrate, 37° C., pH8, read-out: Porcine pancreatic elastase (PPE) IC50; for hNE/PPE selectivity: ratio of PPE IC50 to hNE IC50
T3 construct: purchased Sigma, USA
T3 sequence (P00772 27-266): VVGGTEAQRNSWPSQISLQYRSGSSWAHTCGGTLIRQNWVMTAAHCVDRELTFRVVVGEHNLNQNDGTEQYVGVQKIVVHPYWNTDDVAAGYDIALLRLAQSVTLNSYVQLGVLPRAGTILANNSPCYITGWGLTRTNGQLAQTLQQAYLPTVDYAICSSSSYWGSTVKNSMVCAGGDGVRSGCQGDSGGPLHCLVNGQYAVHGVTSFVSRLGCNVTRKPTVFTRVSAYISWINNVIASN
Protocol: 2.3. Inhibition of Porcine Pancreatic Elastase
The ability of the peptides of the invention to inhibit the hydrolysis activity of porcine pancreatic elastase (Sigma, USA) using the synthetic tripeptidic substrate MeOSuc-AAA-pNA (Bachem, Switzerland) was determined as follows:
as §1, with “(1” for “(0.3”, “porcine pancreatic” for “neutrophil”, “(15” for “(10”, “(0.5%” for “(1%”, “pH8, 100” for “pH 8, 300”

| SMILES | IC50 [1] [nM] | IC50 [2] [nM] | hNE/hPr3 selectivity [2] | IC50 [3] [nM] | hNE/PPE selectivity [3] |
| --- | --- | --- | --- | --- | --- |
| CCCCCCCC[C@@H]1NC(=O)[C@@H]2CCCN2C(=O)[C@H]2CCCN2C(=O)[C@H]([C@@H](C)O)NC(=O)[C@H](CCCCN)NC(=O)[C@H](CCC(N)=O)NC(=O)[C@@H]2CCCN2C(=O)[C@@H]2CCCN2C(=O)[C@H]([C@@H](C)CC)NC(=O)[C@H](CO)NC(=O)[C@H](C)NC(=O)[C@H]([C@@H](C)O)NC(=O)[C@H](CCC(=O)O)NC1=O [Example 4, Cyclo(-OctGly-Glu-Thr-Ala-Ser-Ile-Pro-Pro-Gln-Lys-Thr-^DPro-Pro-)] (cyclo([Gly(octyl)]ETASIPPQKT[dP]P)) | 7.9 | 2150 | 272 | 2750 | 348 |
| CC[C@H](C)[C@@H]1NC(=O)[C@H](CO)NC(=O)[C@H](C)NC(=O)[C@H]([C@@H](C)O)NC(=O)[C@H](CCC(=O)O)NC(=O)[C@H](CCCCNC(=N)N)NC(=O)[C@@H]2CCCN2C(=O)[C@H]2CCCN2C(=O)[C@H]([C@@H](C)O)NC(=O)[C@H](CCCCN)NC(=O)[C@H](CCC(N)=O)NC(=O)[C@@H]2CCCN2C(=O)[C@@H]2CCCN2C1=O [Example 9, Cyclo(-hArg-Glu-Thr-Ala-Ser-Ile-Pro-Pro-Gln-Lys-Thr-^DPro-Pro-)] (cyclo([hArg]ETASIPPQKT[dP]P)) | 23.7 | 70100 | 2958 | 83400 | 3519 |
| CC[C@H](C)[C@@H]1NC(=O)[C@H](CO)NC(=O)[C@H](C)NC(=O)[C@H]([C@@H](C)O)NC(=O)[C@H](CCC(=O)O)NC(=O)[C@H](CCCNC(=N)N)NC(=O)[C@@H]2CCCN2C(=O)[C@H]2CCCN2C(=O)[C@H](CCCC(N)=O)NC(=O)[C@H](CCCCN)NC(=O)[C@H](Cc2ccc(O)cc2)NC(=O)[C@@H]2CCCN2C(=O)[C@@H]2CCCN2C1=O [Example 12, Cyclo(-Arg-Glu-Thr-Ala-Ser-Ile-Pro-Pro-Tyr-Lys-hGln-^DPro-Pro-)] (cyclo(RETASIPPYK[Aad](NH2)[dP]P)) | 10 | > 100000 | >10000 | > 100000 | >10000 |

Next, values leading:

| IC50 [1] [nM] | IC50 [2] [nM] | hNE/hPr3 selectivity [2] | IC50 [3] [nM] | hNE/PPE selectivity [3] | SMILES |
| --- | --- | --- | --- | --- | --- |
| 15.5 | 2370 | 153 | 2690 | 174 | CCCC[C@@H]1NC(=O)[C@H](CCCNC(=N)N)NC(=O)[C@@H]2CCCN2C(=O)[C@H]2CCCN2C(=O)[C@H](Cc2ccc(O)cc2)NC(=O)[C@H](CCCCN)NC(=O)[C@H](CCC(N)=O)NC(=O)[C@@H]2CCCN2C(=O)[C@@H]2CCCN2C(=O)[C@H]([C@@H](C)CC)NC(=O)[C@H](CO)NC(=O)[C@H](C)NC(=O)[C@H]([C@@H](C)O)NC1=O [Example 6, Cyclo(-Arg-Nle-Thr-Ala-Ser-Ile-Pro-Pro-Gln-Lys-Tyr-^DPro-Pro-)] (cyclo(R[Nle]TASIPPQKY[dP]P)) |
| 5.5 | 1440 | 262 | 790 | 144 | CCCCCCCC[C@@H]1NC(=O)[C@@H]2CCCN2C(=O)[C@H]2CCCN2C(=O)[C@H](CO)NC(=O)[C@H](CCCCN)NC(=O)[C@H](CCC(N)=O)NC(=O)[C@@H]2CCCN2C(=O)[C@@H]2CCCN2C(=O)[C@H]([C@@H](C)CC)NC(=O)[C@H](CO)NC(=O)[C@H](C)NC(=O)[C@H]([C@@H](C)O)NC(=O)[C@H](CCC(=O)O)NC1=O [Example 3, Cyclo(-OctGly-Glu-Thr-Ala-Ser-Ile-Pro-Pro-Gln-Lys-Ser-^DPro-Pro-)] (cyclo([Gly(octyl)]ETASIPPQKS[dP]P)) |
| 12.5 | > 100000 | >8000 | > 100000 | >8000 | CC[C@H](C)[C@@H]1NC(=O)[C@H](CO)NC(=O)[C@H](C)NC(=O)[C@H]([C@@H](C)O)NC(=O)[C@H](CCC(=O)O)NC(=O)[C@H](CCCNC(=N)N)NC(=O)[C@@H]2CCCN2C(=O)[C@H]2CCCN2C(=O)[C@H]([C@@H](C)O)NC(=O)[C@H](CCCCN)NC(=O)[C@H](CCC(N)=O)NC(=O)[C@@H]2CCCN2C(=O)[C@@H]2CCCN2C1=O [Example 11, Cyclo(-Arg-Glu-Thr-Ala-Ser-Ile-Pro-Pro-Gln-Lys-Thr-^DPro-Pro-)] (cyclo(RETASIPPQKT[dP]P)) |
| 20.3 | 77600 | 3823 | 4650 | 229 | CC[C@H](C)[C@@H]1NC(=O)[C@H](CO)NC(=O)[C@H](C)NC(=O)[C@H]([C@@H](C)O)NC(=O)[C@H](CCC(=O)O)NC(=O)[C@H](CCCNC(=N)N)NC(=O)[C@@H]2CCCN2C(=O)[C@H]2CCCN2C(=O)[C@H](Cc2c[nH]cn2)NC(=O)[C@H](CCCCN)NC(=O)[C@H](Cc2ccc(O)cc2)NC(=O)[C@@H]2CCCN2C(=O)[C@@H]2CCCN2C1=O [Example 14, Cyclo(-Arg-Glu-Thr-Ala-Ser-Ile-Pro-Pro-Tyr-Lys-His-^DPro-Pro-)] (cyclo(RETASIPPYKH[dP]P)) |
| 12.7 | 1710 | 135 | 1750 | 138 | CC[C@H](C)[C@@H]1NC(=O)[C@H](CO)NC(=O)[C@H](C)NC(=O)[C@H]([C@@H](C)O)NC(=O)[C@H](CCc2ccc(O)cc2)NC(=O)[C@H](CCCNC(=N)N)NC(=O)[C@@H]2CCCN2C(=O)[C@H]2CCCN2C(=O)[C@H](Cc2ccc(O)cc2)NC(=O)[C@H](CCCCN)NC(=O)[C@H](CCC(N)=O)NC(=O)[C@@H]2CCCN2C(=O)[C@@H]2CCCN2C1=O [Example 5, Cyclo(-Arg-hTyr-Thr-Ala-Ser-Ile-Pro-Pro-Gln-Lys-Tyr-^DPro-Pro-)] (cyclo(R[hTyr]TASIPPQKY[dP]P)) |

Source: patent US10723765B2, “Beta-hairpin peptidomimetics as selective elastase inhibitors” (POLYPHOR AG, priority 2013, dated 2020)
